The target in data set [1] is T1, R99A DXPS (Escherichia coli, UniProt P77488, R99A).
T1 construct: made in house
The experiment in a line: DXPS-IspC coupled assay, R99A variant. The format is biochemical, E. coli. The procedure: To determine the role of active site network residues in the activity of oximes, inhibitory activity of 1 was assessed against EcD427A, EcH431A, and EcR99A by the DXPS-IspC coupled assay[41],[42] (Fig 4B, S3, Table S1). Ki determination was performed by varying [pyruvate] in order to assess the impact of residue substitutions on the uncompetitive mode of inhibition. […] (8.7 ± 1.2 μM, Fig S3, Table S1).
Inhibitory activity of compounds against DXPS were monitored via a continuous spectrophotometric coupled assay with DXPS and IspC as previously described.[41],[42] Briefly, Reaction mixtures containing HEPES (100 mM, pH 8.0), MgCl2 (2 mM), NaCl (5 mM), ThDP (1 mM), BSA (1 mg/mL), DXPS (125–500 nM), IspC (1.7 μM), NADPH (160 μM), DMSO (5%, v/v), and inhibitor (0–200 μM) were preincubated at 25 °C (or chamber temperature 25–30 °C) for 5 min. Enzymatic reactions were initiated via the addition of 20 μL of a 10x substrate mix for a final well volume of 200 μL. Reactions were performed in triplicate unless otherwise noted. See the following sections for details and modifications.
When varying pyruvate (0–500 μM), GAP was maintained at 50 μM (3 mM for R478A). When varying GAP (0–500 μM), pyruvate was maintained at 500 μM. The following [DXPS] were used when varying 1: WT EcDXPS, R478A, H431A, D427A (200 nM), R99A (500 nM), WT DrDXPS, WT PaDXPS (150 nM). Analogs 3 and 4 were tested using WT EcDXPS (150 nM). Reactions were incubated and initiated as described above. Immediately following initiation, NADPH depletion was monitored at 340 nm at 25 °C for 7–10 min with a 14–20 second time interval. Initial velocities of DXP formation were determined from the linear portion of the NADPH decay. Initial velocities were arithmetically corrected for background for compound 4. Initial velocities were plotted vs. substrate concentration, and the data were fit to equation 1 (mixed model), 2 (competitive), or 3 (uncompetitive) based on the calculated α value and goodness of fit in GraphPad Prism. Reported standard errors of the mean for Kis are calculated from three replicates.

The nature of data set [2]: Steady state CV, gold ultramicroelectrode. The following applies: Tris pH 8, prepared aerobically then deoxygenated, gold UME. The class given is physicochemical. From the text: To provide additional evidence for DXPS-dependent reduction of 1, we used electrochemistry to continuously monitor the redox state of 1 during the course of a DXPS reaction. For these experiments, we used a gold ultramicroelectrode, which allowed us to observe the steady-state current corresponding to the reduction of 1, under diffusion control, during the progression of the reaction. […] Using Equation 4 (Electrochemical Measurements, Materials and Methods), it was estimated that the observed pseudo steady state current at −0.50 V corresponded to a one-electron transfer reaction. We used this voltage to interrogate the reduction of 1 during reaction with enzyme and substrates. […] Reactions were initiated in the cell via addition of different combinations of DXPS and substrates which were previously deoxygenated in an anaerobic chamber (Fig 9, S26). […] Returning to the CV, when measured after the chemical reaction transpires, the reduction peak nearly vanished as expected (Fig 9, S28).
Reaction solutions were prepared containing 2 mM MgCl2, 100 mM NaCl, 50 mM Tris pH 8, 1 mM ThDP, and 1 (final 1 mM) under aerobic conditions to allow for oxidation of 1. […] Reactions were initiated and mixed via gas tight Hamilton syringe at ~300 s and measured for at least 200 s. […]

The term Ki denotes a dissociation constant, usually derived from enzyme kinetics or from competition with a known ligand. Lower therefore signals higher affinity.

For `ON=Cc1cc(O)c(O)cc1O` [compound 1, 2,4,5-trihydroxybenzaldoxime], the “MOI varying D-GAP” value in data set [1] (EcR99A) is reported as “competitive”. Further, in data set [1] (EcR99A), the MOI varying pyruvate entry is reported as “uncompetitive”. Also, the Ki in data set [1] (Ki Vary Pyruvate, R99A, pyruvate 0–500 μM) was 30 ± 1 µM; in data set [1] (Ki varying [D-GAP], R99A, GAP 0–500 μM, pyruvate 500 μM), 8.7 ± 1.2 µM. Moreover, in data set [1] (R99A, vary pyruvate, fold reduction in potency vs WT), the “Ki/Ki^wt” value is recorded as ~ 6. In addition, the “fold reduction in potency relative to WT” value in data set [1] (R99A, varying [D-GAP]) is listed as 4 fold. Moreover, in data set [2], the “reduction half-height potential (steady state CV)” value is on record as ~ −0.35 V.

The values above are taken from doi:10.1101/2025.03.03.641193, “Trihydroxybenzaldoximes are redox cycling inhibitors of ThDP-dependent DXP synthase” (bioRxiv, 2025).
